Measurements: US8344009B2, “Substituted phenoxy thiazolidinediones as estrogen related receptor-á modulators” (priority 2007, dated 2013)
pEC50: −log10 of the molar value. Marks after values point to notes of the source that are not given here.

Key:
ZDF fa/fa male rats = test: ZDF diabetic rat model at 0.08, 0.4, 2 and 10 mpk; format: in vivo; settings: for % Hb1Ac / FFA (NEFA) / Glucose / Triglycerides / cholesterol / ketone: 28 day ZDF efficacy study; for circulating glucose levels upon intraperitoneal delivery of insulin (ITT): FIG. 10
Excerpt: Briefly, sixty-five ZDF fa/fa male rats were received at four weeks of age and allowed to acclimate for one week. At five week of age the animals were single housed in cages in a temperature-controlled room with 12-hour light/dark cycle. They were allowed ad libitum access to water and food and throughout the study were maintained on a Purina 5008 diet. […] Animals were given Compound 1 orally once a day for 28 days in the morning at 0.08, 0.4, 2.0 and 10 mpk. The vehicle used for Compound 1 in this study consisted of 15% VE-TEPG, 30% PEG400 and 55% water. Food intake, body weight, glucose, insulin, triglyceride and free fatty acid levels were monitored throughout the study using blood collected from the tail vein. At day 16 of the study an insulin tolerance test (ITT) was done to evaluate peripheral insulin sensitivity. On day 22 an OGTT was done to assess glucose disposal rates. On the day of the necropsy the rats were bled through the orbital sinus under CO2:O2 anesthesia. Animals were sacrificed and several tissues were collected, frozen in liquid nitrogen and stored at −80° C. Serum plasma samples were prepared by centrifugation in EDTA containing tubes, transferred into 96 well plates and stored at −80° C.

[1] = biological target: T1, ERR1 (also known as ERR-α or ERR-1) (Homo sapiens, UniProt P11474); test: TR-FRET assay (disruption of co-activator peptide binding to ERR1 LBD); format: biochemical
T1 sequence (P11474 193-421 limits assumed): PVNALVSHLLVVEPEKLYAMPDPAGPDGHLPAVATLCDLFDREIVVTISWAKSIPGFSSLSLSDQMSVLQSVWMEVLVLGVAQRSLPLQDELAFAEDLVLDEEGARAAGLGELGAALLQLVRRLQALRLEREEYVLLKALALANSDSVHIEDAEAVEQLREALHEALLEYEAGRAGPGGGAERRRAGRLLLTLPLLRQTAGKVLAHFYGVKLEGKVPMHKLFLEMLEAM
Description: Time-Resolved Fluorescence Resonance Energy Transfer (TR-FRET) experiments were performed to examine the functional response of ERR1 (also known as ERR-α or ERR-1) ligands. The TR-FRET assay described herein relied on the conformation of ERR1 for binding to a co-activator peptide: when a test compound binds to ERR1 and alters its conformation, it can disrupt the binding of the co-activator peptide. The components of this homogeneous secondary assay included: the ^6His-tagged-ERR1LBD, a GST-labeled-hSRC2 co-activator polypeptide and a fluorescent donor/acceptor pair from CIS bio international htrf/bioassays (Bedford, Mass.) using both an α-GST Europium Cryptate (Eu) label and an α^6His-XL665 (allophycocyanin) fluorophore.
Reactions were allowed to reach equilibrium at 25° C. for 4-18 hours before collecting data on the Analyst from LJL Biosystems (Molecular Devices Sunnyvale, Calif.). […] Dose response curves were fitted using a hyperbolic equation and the data reported is the average of 3 independent experiments.

C57/BL6 male mice = test: C57/Bl6 diet induced obesity mouse model; format: in vivo
Excerpt: C57/B16 mice placed on a high fat diet are characterized by hypertriglyceridemia, impaired glucose tolerance and develop hepatic steatosis. Forty C57/BL6 male mice were received at seven weeks of age, allowed to acclimate for one week, placed on high fat diet (Test Diet 58Y1 60% of the calories from fat) for 6 weeks, and then single housed on the same diet for an additional five weeks. Body mass composition and insulin were used to randomize the animals into three groups. […] Ten additional animals were maintained on a low fat diet (4% calories from fat) and during the course of the study were given vehicle orally once a day. Blood was collected from the tail to evaluate glucose, triglyceride, FFA and insulin levels. Body weight and body composition were also recorded. Upon necropsy animals were bled through the orbital sinus under CO2:O2 anesthesia, sacrificed, and several tissues were collected and frozen in liquid nitrogen for storage at −80° C. for further use. Serum plasma samples were prepared by centrifugation in EDTA containing tubes, transferred to 96 well plates and stored at −80° C. Insulin, FFA and triglyceride levels were obtained via Day 10 tail bleed. On day fourteen an OGTT (Oral Glucose Tolerance Test) was done to determine glucose disposal rates in C57B16 mice treated with compound.

[2] = 10 mpk once a day, HFD, 10 days
[3] = 10 mpk, after 14 days of treatment
[4] = 30 mpk once a day, HFD, 10 days
[5] = 30 mpk, after 14 days of treatment

`COc1cc(/C=C2\SC(=O)NC2=O)ccc1Oc1ccc(C#N)cc1C(F)(F)F` [Compound 1, 4-[4-(2,4-Dioxo-thiazolidin-5-ylidenemethyl)-2-methoxy-phenoxy]-3-trifluoromethyl-benzonitrile] was tested, and the “Body weight change (0-28 day)” value (ZDF fa/fa male rats; 0.08 mpk orally once a day) was 71.7, the “Total food intake (0-28 days)” value (ZDF fa/fa male rats; 0.08 mpk orally once a day) was 804.5 and the “% Hb1Ac” value (ZDF fa/fa male rats; 0.08 mpk) was 10.1%. For the same compound, the “FFA (NEFA)” value (ZDF fa/fa male rats; 0.08 mpk) was 1.2 mM, the Glucose (ZDF fa/fa male rats; 0.08 mpk) was 444 mg/dL and the Triglycerides (ZDF fa/fa male rats; 0.08 mpk) was 770 mg/dL. The cholesterol (ZDF fa/fa male rats; 0.08 mpk) was 118 mg/dL, the ketone (ZDF fa/fa male rats; 0.08 mpk) was 162 µmol/L and the “Body weight change (0-28 day)” value (ZDF fa/fa male rats; 0.4 mpk orally once a day) was 61.9. The “Total food intake (0-28 days)” value (ZDF fa/fa male rats; 0.4 mpk orally once a day) was 792.3, the “% Hb1Ac” value (ZDF fa/fa male rats; 0.4 mpk) was 10.0% and the “FFA (NEFA)” value (ZDF fa/fa male rats; 0.4 mpk) was 0.61 mM. The Glucose (ZDF fa/fa male rats; 0.4 mpk) was 419 mg/dL, the Triglycerides (ZDF fa/fa male rats; 0.4 mpk) was 672 mg/dL and the cholesterol (ZDF fa/fa male rats; 0.4 mpk) was 119 mg/dL. The ketone (ZDF fa/fa male rats; 0.4 mpk) was 113 µmol/L, the “Body weight change (0-28 day)” value (ZDF fa/fa male rats; 2.0 mpk orally once a day) was 80.4 and the “Total food intake (0-28 days)” value (ZDF fa/fa male rats; 2.0 mpk orally once a day) was 792.6. For the same compound, the “% Hb1Ac” value (ZDF fa/fa male rats; 2.0 mpk) was 8.8%, the “FFA (NEFA)” value (ZDF fa/fa male rats; 2.0 mpk) was 0.87 mM and the Glucose (ZDF fa/fa male rats; 2.0 mpk) was 376 mg/dL. The Triglycerides (ZDF fa/fa male rats; 2.0 mpk) was 605 mg/dL, the cholesterol (ZDF fa/fa male rats; 2.0 mpk) was 117 mg/dL and the ketone (ZDF fa/fa male rats; 2.0 mpk) was 95* umol/L. The “Body weight change (0-28 day)” value (ZDF fa/fa male rats; 10 mpk orally once a day) was 95.4, the “Total food intake (0-28 days)” value (ZDF fa/fa male rats; 10 mpk orally once a day) was 771.4 and the “% Hb1Ac” value (ZDF fa/fa male rats; 10.0 mpk) was 7.7%. For the same compound, the “FFA (NEFA)” value (ZDF fa/fa male rats; 10.0 mpk) was 0.75 mM, the Glucose (ZDF fa/fa male rats; 10.0 mpk) was 274* mg/dL and the Triglycerides (ZDF fa/fa male rats; 10.0 mpk) was 506 mg/dL. For the same compound, the cholesterol (ZDF fa/fa male rats; 10.0 mpk) was 121 mg/dL, the ketone (ZDF fa/fa male rats; 10.0 mpk) was 85* umol/L and the “circulating glucose levels upon intraperitoneal delivery of insulin (ITT)” value (ZDF fa/fa male rats) was “reduction in circulating glucose levels”. The “circulating glucose levels upon intraperitoneal delivery of insulin (ITT)” value (ZDF fa/fa male rats; listed as compound 1) was “normalizing glucose levels at the 30 minute time point”, the “AUC of glucose during the ITT” value (ZDF fa/fa male rats; FIG. 10 right panel, 0-60 and 0-120 minute time point) was “reduction of AUC of glucose” and the fasting glucose levels (ZDF fa/fa male rats; FIG. 11, after a 4 and 16 hour fast) was “reduction in fasting glucose levels”. The “plasma glucose following an oral glucose tolerance test” value (ZDF fa/fa male rats; FIG. 12, OGTT day 22) was “reducing fasting plasma glucose”, the “fed plasma glucose levels” value (ZDF fa/fa male rats; FIG. 13, first three weeks of the study) was “lowering of fed plasma glucose levels” and the pEC50 [1] was 7.27. For the same compound, the FFA (C57/BL6 male mice; [2]) was 0.38* mEq/L, the Insulin (C57/BL6 male mice; [2]) was 1.4* μg/L and the Triglyceride (C57/BL6 male mice; 10 mpk once a day, HFD, 10 days, tail bleed) was 58** mg/dL. The “AUC 0-60 min of glucose in OGTT” value (C57/BL6 male mice; [3]) was 15077 mg/dL/1 hr, the “AUC 0-120 min of glucose in OGTT” value (C57/BL6 male mice; [3]) was 27984 mg/dL/2 hr and the 3-hydroxy-butyrate (C57/BL6 male mice; 10 mpk, treated for 18 days) was 6.0 ×10−5. The “FFA (NEFA)” value (C57/BL6 male mice; 10 mpk, treated for 18 days) was 0.49 mEq, the Glucose (C57/BL6 male mice; 10 mpk, treated for 18 days) was 176 mg/dL and the LDL (C57/BL6 male mice; 10 mpk, treated for 18 days) was 12 mg/dL. For the same compound, the Triglyceride (C57/BL6 male mice; 10 mpk, treated for 18 days) was 123 mg/dL, the FFA (C57/BL6 male mice; [4]) was 0.40* mEq/L and the Insulin (C57/BL6 male mice; [4]) was 1.3* μg/L. The Triglyceride (C57/BL6 male mice; 30 mpk once a day, HFD, 10 days, tail bleed) was 59* mg/dL, the “AUC 0-60 min of glucose in OGTT” value (C57/BL6 male mice; [5]) was 14425* mg/dL/1 hr and the “AUC 0-120 min of glucose in OGTT” value (C57/BL6 male mice; [5]) was 28540 mg/dL/2 hr. For the same compound, the 3-hydroxy-butyrate (C57/BL6 male mice; 30 mpk, treated for 18 days) was 9.1* ×10−5, the “FFA (NEFA)” value (C57/BL6 male mice; 30 mpk, treated for 18 days) was 0.38* mEq and the Glucose (C57/BL6 male mice; 30 mpk, treated for 18 days) was 174 mg/dL. The LDL (C57/BL6 male mice; 30 mpk, treated for 18 days) was 7* mg/dL, the Triglyceride (C57/BL6 male mice; 30 mpk, treated for 18 days) was 58*** mg/dL and the “plasma glucose following an oral glucose tolerance test” value (C57/BL6 male mice; FIG. 2 and Table VI, after 14 days of treatment) was “reduces fasting plasma glucose following an oral glucose tolerance test”.
